Where two headings read alike, the source gives them in different places.
What was measured:
[1] = test system: normal bovine venular endothelial cells (BVEC)
Method: Cell lines and Culture. […] Normal bovine venular endothelial cells (BVEC) were maintained in DMEM media (Gibco) supplemented with 1 mM sodium pyrovate (Gibco), and 20% bovine calf serum (Hyclone). Cell viability was determined using the trypan blue exclusion test. To ensure an exponential growth, cells were plated in fresh medium 24 h before each treatment.
Drug Treatment and Survival Curves. Cytotoxicity studies were initiated by plating 2×10^4 cells obtained from exponentially growing cultures in 24-well tissue culture plates (Coming-Costar, Cambridge Mass.) in the appropriate medium. Following 24 h incubation at 37° C., drugs were added to quadruplicate wells and incubated for 24 h, the wells were washed twice with prewarmed phosphate-buffered saline (PBS) and then incubated with drug-free medium for 2-3 doubling times.

[2] = test system: GI 101A cells; test: cells; format: cell-based, human
Text: (§1) . Cell lines and Culture.
(§2) Drugs and Chemical Reagents. […] . […] All other chemicals were reagent grade.
(§3) Drug Treatment and Survival Curves.
(§4) Pharmacol. 28:370-376 (1991). […] .
(§5) Drug Combinations and Data Analysis. […] . Pharmacol. (in press, 1997). […] Enzyme Regul. […] Enzyme Regul. 22:27-55 (1984).
(§6) . […] Enzyme Regul. 22:27-55 (1984).

[3] = test system: MDA-231 cells; test: cells; format: cell-based, human
Text: as §1, §2, §3, §4, §5, §6

[4] = test system: MDA-231 (mutant p53); test: Crystal violet staining growth inhibition assay, median effect analysis; conditions: Homo sapiens, MDA-MB-231, 24 h, read-out: IC50 MDA-231 (p53-)
[5] = test system: HMEC (p53+); test: as above; conditions: Homo sapiens, 24 h, read-out: IC50 HMEC (p53+)
[6] = UCN-01 pharmacokinetics in rats, effect of human AGP; format: in vivo, male Wistar rats; conditions: for half-life / clearance / Vd: 10 mg/kg; for half-life: range over the two groups (without and with 10 mg human AGP); for clearance: read-out: total body clearance (converted); for Vd: read-out: volume of distribution during the elimination phase
Text: Many basic drugs tend to bind in variable degrees to AGP (Knowlton, K. et al., "Bcl-2 slows in vitro breast cancer growth despite its antiapoptotic effect," J. Surg. Res. 76:22-26 (1998)). […] Thus monitoring changes in the pharmacokinetic drug concentrations in these pathological conditions is extremely important, since dosage adjustment would be considered. For our drug combination, this binding is of a crucial consequence since the attainable plasma and tumor concentrations may be questionable and plasma protein displacement interaction may occur and can lead to undesirable side effects. Thus the role of human α1 -acid glycoprotein (AGP) binding on UCN-01 disposition was determined. In this example, two groups of rats were prepared by cannulating the femoral vein and artery. The first group (n=6) received UCN-01 (10 mg/kg i.v.) by slow infusion over 1 min., while the second group (n=5) received UCN-01+10 mg human α1 -acid glycoprotein. Plasma samples were obtained over time (0-700 min), and were analyzed for UCN-01 by HPLC system (Shimazdu LC), detecting peaks using fluorescence detector (excitation=310 nm, emission=410).

[7] = Death of animals injected with UCN-01; conditions: i.m., doses higher than 5 mg/kg
[8] = 72- or 3-h infusion, NCI Phase I; cited from earlier work
[9] = Tissue distribution of UCN-01 in rats, effect of human AGP; format: in vivo, male Wistar rats; conditions: rat, iv, 10 mg/kg
Method: The role of human AGP binding on the tissue distribution of UCN-01. In this study, two groups of rats (n=3) were infused with bolus injection of either UCN-01 (10 mg/kg) or UCN-01+ human AGP (10 mg/kg +10 mg). On hour following drug administration, plasma samples as well as organ tissues (brain, muscle, kidneys, lungs, liver, heart and spleen) were collected. Tissues were digested and homogenized, protein was precipitated with cold ethanol/1% ascorbic acid, and the supernatant was extracted with chloroform. The organic phase was then dried under nitrogen, reconstituted in acetonitrile and analyzed by HPLC as mentioned above.

[10] = test system: α1 -acid glycoprotein (AGP); conditions: cited from earlier work
[11] = test system: HMEC/E6 (p53-); test: Crystal violet staining growth inhibition assay, median effect analysis; format: cell-based; conditions: Homo sapiens, 24 hr treatment
Text: Cytotoxicity and Bromodeoxyuridine incorporation assays. […] Enzyme Regul.

[12] = rat, plasma, iv, UCN-01 10 mg/kg i.v. + 10 mg human AGP
[13] = rat, plasma, iv, UCN-01 10 mg/kg i.v. alone

CN[C@@H]1C[C@H]2O[C@@](C)([C@@H]1OC)n1c3ccccc3c3c4c(c5c6ccccc6n2c5c31)C(=O)N[C@@H]4O [UCN-01, 7-hydroxystaurosporine]
enhancement of CPT-induced cytotoxicity [1]: no enhancement of CPT-induced cytotoxicity | enhancement of CPT cytotoxicity [2]: about 30 fold | enhancement of CPT cytotoxicity [3]: ~40 fold | IC50 [4]: 49.6 nM | IC50 [5]: 0.07 nM | duration of peak plasma concentration >100 nM ([6]; 10 mg/kg i.v., presence of human AGP): up to 300 min | half-life ([6]; rat, plasma, iv, 10 mg/kg i.v., read-out: t1/2α): 0.183 to 0.85 h | half-life ([6]; rat, plasma, iv, 10 mg/kg i.v., read-out: t1/2β): 6.65 to 6.95 h | clearance [6, 12]: 1.5 mL/min | Vd [6, 12]: 1.7 L/kg | clearance [6, 13]: 4.33 mL/min | Vd [6, 13]: 6.8 L/kg | Cmax ([6]; rat, plasma, iv, 10 mg/kg i.v., presence of human AGP, read-out: peak plasma concentration): > 100 nM | death of animals [7]: Death of animals injected with doses higher than 5 mg/kg was observed | distribution volume [8]: small distribution volume | half-life [8]: long half-life | plasma concentrations [8]: high plasma concentrations | systemic clearance [8]: Extremely low systemic clearance | Kp at 1 h ([9]; all tissues, UCN-01, 1 h, read-out: tissue:plasma ratios, all tissues): 10 to 1190 | concentration at 1 h ([9]; brain, brain, UCN-01 10 mg/kg alone, 1 h, read-out: tissue concentration): 2450 ± 495 ng/g | Kp at 1 h ([9]; brain, brain, UCN-01 + human AGP, 1 h, read-out: Tissue/Plasma ratio): 0.6 ± 0.33 | concentration at 1 h ([9]; brain, brain, UCN-01 + human AGP, 1 h, read-out: tissue concentration): 1720 ± 78.4 ng/g | Kp at 1 h ([9]; brain, brain, UCN-01 alone, 1 h, read-out: Tissue/Plasma ratio): 10.5 ± 1.9 | concentration at 1 h ([9]; heart, heart, UCN-01 10 mg/kg alone, 1 h, read-out: tissue concentration): 19900 ± 9940 ng/g | Kp at 1 h ([9]; heart, heart, UCN-01 + human AGP, 1 h, read-out: Tissue/Plasma ratio): 3.5 ± 1.7 | concentration at 1 h ([9]; heart, heart, UCN-01 + human AGP, 1 h, read-out: tissue concentration): 10100 ± 4900 ng/g | Kp at 1 h ([9]; heart, heart, UCN-01 alone, 1 h, read-out: Tissue/Plasma ratio): 86.8 ± 41.7 | concentration at 1 h ([9]; kidney, kidney, UCN-01 10 mg/kg alone, 1 h, read-out: tissue concentration): 73200 ± 3050 ng/g | Kp at 1 h ([9]; kidney, kidney, UCN-01 + human AGP, 1 h, read-out: Tissue/Plasma ratio): 14 ± 5.6 | concentration at 1 h ([9]; kidney, kidney, UCN-01 + human AGP, 1 h, read-out: tissue concentration): 39400 ± 8510 ng/g | Kp at 1 h ([9]; kidney, kidney, UCN-01 alone, 1 h, read-out: Tissue/Plasma ratio): 298 ± 40 | concentration at 1 h ([9]; liver, liver, UCN-01 10 mg/kg alone, 1 h, read-out: tissue concentration): 42900 ± 3210 ng/g | Kp at 1 h ([9]; liver, liver, UCN-01 + human AGP, 1 h, read-out: Tissue/Plasma ratio): 11.3 ± 1.34 | concentration at 1 h ([9]; liver, liver, UCN-01 + human AGP, 1 h, read-out: tissue concentration): 30100 ± 2530 ng/g | Kp at 1 h ([9]; liver, liver, UCN-01 alone, 1 h, read-out: Tissue/Plasma ratio): 189 ± 131 | concentration at 1 h ([9]; lung, lung, UCN-01 10 mg/kg alone, 1 h, read-out: tissue concentration): 279000 ± 19600 ng/g | Kp at 1 h ([9]; lung, lung, UCN-01 + human AGP, 1 h, read-out: Tissue/Plasma ratio): 53.6 | concentration at 1 h ([9]; lung, lung, UCN-01 + human AGP, 1 h, read-out: tissue concentration): 141000 ± 12000 ng/g | Kp at 1 h ([9]; lung, lung, UCN-01 alone, 1 h, read-out: Tissue/Plasma ratio): 1190 ± 775 | concentration at 1 h ([9]; muscle, muscle, UCN-01 10 mg/kg alone, 1 h, read-out: tissue concentration): 11900 ± 783 ng/g | Kp at 1 h ([9]; muscle, muscle, UCN-01 + human AGP, 1 h, read-out: Tissue/Plasma ratio): 2.27 ± 1.11 | concentration at 1 h ([9]; muscle, muscle, UCN-01 + human AGP, 1 h, read-out: tissue concentration): 6590 ± 3060 ng/g | Kp at 1 h ([9]; muscle, muscle, UCN-01 alone, 1 h, read-out: Tissue/Plasma ratio): 60 ± 5.48 | concentration at 1 h ([9]; plasma, plasma, UCN-01 10 mg/kg + human AGP 10 mg, 1 h, mean ± SD, n=3, read-out: plasma concentration): 2960 ± 250 ng/mL | concentration at 1 h ([9]; plasma, plasma, UCN-01 10 mg/kg alone, 1 h, mean ± SD, n=3, read-out: plasma concentration): 240 ± 35 ng/mL | concentration at 1 h ([9]; spleen, spleen, UCN-01 10 mg/kg alone, 1 h, read-out: tissue concentration): 74900 ± 5170 ng/g | Kp at 1 h ([9]; spleen, spleen, UCN-01 + human AGP, 1 h, read-out: Tissue/Plasma ratio): 19.6 ± 14.7 | concentration at 1 h ([9]; spleen, spleen, UCN-01 + human AGP, 1 h, read-out: tissue concentration): 53300 ± 3120 ng/g | Kp at 1 h ([9]; spleen, spleen, UCN-01 alone, 1 h, read-out: Tissue/Plasma ratio): 326 ± 208 | binding to α1-acid glycoprotein [10]: high affinity binding | IC50 [11]: 1.4 nM

Source: patent publication US6214821A, “Methods and composition for the inhibition of cancer cells” (Washington State University Research Foundation, priority 1999, dated 2001)
